Data set [1] concerns the target T1, GHSR-1a (HEK293/GHSR1a cell line) (Homo sapiens, UniProt Q92847).
T1 construct: expressed in transfected cells; host or cells: HEK293/GHSR1a cell line
Put plainly: Ghrelin antagonist potency (IC50) with calcium FLIPR assay, ghrelin 10 nM. The data set is classed as cell-based. In outline: (§1)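 HEK293/GHSR1a cells, seeded 24 hr ahead and loaded with calcium dye 30-60 min, were read by FLIPR fluorescence for 2 min after addition at t=20 sec. Agonism: compound alone, EC50 from dose-response. Antagonism: compound plus 10 nM ghrelin, IC50 from reduction of ghrelin response.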

A short description of data set [2]: Metabolic stability in mouse liver microsomes. The data set is classed as in vitro ADME. As for the experimental part:
(§2) Metabolic Stability Study
(§3) The metabolic stability of compounds in human, dog, rat and mouse liver microsomes was performed according the experimental conditions reported below:
(§4) • a) Prepare the following 5 stock solutions: • 1. Test compound stock solutions: dilute 10 mM solution of dextromethorphan (Dtr) in DMSO, 10 mM solution of diphenhydramine (DPA) in DMSO, 10 mM solution of omeprazole (Ome) in DMSO, 10 mM solution of verapamil (Ver) in DMSO, and 10 mM of an inverse agonist compound in DMSO to 0.25 mM solution each with acetonitrile/water (70/30). • 2. Buffer: 100 mM potassium phosphate Buffer (PBS) at pH 7.4 • 3. Liver microsomes (20 mg/ml): Thaw in 37° C. water bath quickly • 4. 2000 μL: of NADPH regenerating system (1.3 mM). Place this system on ice before use:
(§5) • 5. […] The test compound concentration in the wells, measured by LC-MS/MS, represents the concentration at time=0. • f) To determine the test compound concentration when t≠0, pre-incubate the NADPH regenerating system and the incubation plate containing the remaining 320 μL of incubation mixture (microsomes protein and test compound) for 5 minutes at 37° C. • g) Start the incubation reaction by adding 80 μL NADPH regenerating system to each well containing the remaining 320 μL incubation mixture. • h) After 10 min., 30 min., and 90 min. of incubation at 37° C., transfer 100 μL of the incubation mixture (microsomes protein, test compound, and NADPH) into the wells of a stop plate pre-filled with 300 μL of the cold quench solution. Shake well. • i) Centrifuge the stop plate at 5000×g for 10 minutes. Collect and dilute the supernatant 3 times with distilled water. Sample and analyze the test compound concentration for all the wells by LC-MS/MS. Animal PK Studies via i.v. (intravenous), p.o. (orally) and s.c. (subcutaneous) administrations
(Liver microsomes are a subcellular fraction often used to study metabolism.)

Data set [3] deals with T2, recombinant human ghrelin receptor (HEK293/GRLN) (Homo sapiens, UniProt Q92847).
T2 construct: expressed in transfected cells
T2 sequence (Q92847 whole entry): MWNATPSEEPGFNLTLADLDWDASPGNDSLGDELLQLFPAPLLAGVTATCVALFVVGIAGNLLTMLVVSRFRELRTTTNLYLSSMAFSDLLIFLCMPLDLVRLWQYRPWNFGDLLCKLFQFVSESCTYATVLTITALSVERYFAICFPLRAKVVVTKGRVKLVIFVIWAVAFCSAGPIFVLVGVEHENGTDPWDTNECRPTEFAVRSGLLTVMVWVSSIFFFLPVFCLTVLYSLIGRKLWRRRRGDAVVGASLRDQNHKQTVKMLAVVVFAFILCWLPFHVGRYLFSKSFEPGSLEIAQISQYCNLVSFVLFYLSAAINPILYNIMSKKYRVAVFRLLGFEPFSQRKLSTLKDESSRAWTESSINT
Put plainly: Ghrelin inverse agonist potency (EC50) with IP-1 (IP-One HTRF) assay. It counts as cell-based. The settings on record: IP-1 assay. In outline: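 HEK293/GRLN cells were seeded 18-22 hours before the test, then exposed to compound in stimulation buffer for 1 hour at 37° C, 5% CO2. IP-1 was detected by IP-One HTRF (IP1-d2 plus Tb-cryptate, 1 hour RT), reading 620 and 665 nm; the inverse agonist EC50 was derived from this.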
On the technique in general: In TR-FRET formats the signal depends on donor and acceptor labels being close together.

The target of data set [4] is T1, GHSR-1a (HEK293/GHSR1a cell line). The experiment in a line: Ghrelin agonist potency (EC50) with calcium FLIPR assay. It counts as cell-based. The method, boiled down:
as §1

Data set [5] is described as follows: Metabolic stability in human liver microsomes. The data set is classed as in vitro ADME. As for the experimental part: as §2, §3, §4, §5
The mark [6] stands for this setting: ghrelin antagonist potency, read-out: Activity IC50.
[7] abbreviates: ghrelin inverse agonist potency, read-out: Activity EC50.
Setting [8] is: ghrelin agonist potency, read-out: Activity EC50/EMax.
The mark [9] stands for this setting: HEK293/GHSR1a, ghrelin 10 nM, read-out: Activity IC50 (ghrelin antagonist potency).
Where [10] appears, read: HEK293/GRLN, read-out: Activity EC50 (ghrelin inverse agonist potency).
Where [11] appears, read: HEK293/GHSR1a, read-out: Activity EC50/EMax: EC50 (ghrelin agonist potency).
Where [12] appears, read: ghrelin antagonist potency, read-out: IC50 (Activity).
The mark [13] stands for this setting: inverse agonist potency, read-out: EC50 (Activity).

Several values for one entry are separate records, joined by “and”; a condition that tells them apart may be missing. Equal values may be shown once. Read-outs that look alike come from different tables or passages of the source.

T1 sequence (Q92847 whole entry): as above

On to `COC(=O)c1cc(S(=O)(=O)Cc2ccc3c(c2)CNC3)ccc1NC(=O)NC(C)c1ccccc1` (stereo not shown) [H1459, methyl 5-((isoindolin-5-ylmethyl)sulfonyl)-2-(3-(1-phenylethyl)ureido)benzoate], for which the concentration for half-maximal inhibition (IC50) – broadly, the concentration that gives 50% inhibition – in data set [1] (setting [6]) is 11.5 nM. Besides, in data set [2], the “Metabolic Stability Study M = mouse” value stood at 49.3 µL/min/mg. For the same compound, the figures for the EC50 in data set [3] (setting [7]) and in data set [4] (setting [8]) were 8.4 nM and over 30000 nM, respectively. In addition, the “Metabolic Stability Study H = human” value in data set [5] is 53.7 µL/min/mg.
As to `CC(NC(=O)Nc1ccc(S(=O)(=O)Cc2ccc3c(c2)CN(C)C3)cc1)c1ccccc1Cl` (stereo not shown) [H1267, 1-(1-(2-chlorophenyl)ethyl)-3-(4-(((2-methylisoindolin-5-yl)methyl)sulfonyl)phenyl)urea], in data set [1] (setting [9]), the IC50 came out at 9.2 nM. For the same compound, in data set [2], the “Metabolic Stability Study M = mouse” value amounted to 147.8 µL/min/mg. Moreover, the EC50 is 4.7 nM in data set [3] (setting [10]) and over 30000 nM in data set [4] (setting [11]). Moreover, the “Metabolic Stability Study H = human” value in data set [5] came to 109.8 µL/min/mg.
Taken in the same sequence, the figures for `CC(NC(=O)Nc1ccc(S(=O)(=O)Cc2ccc3c(c2)CNC3)cc1)c1c(F)cccc1F` (stereo not shown) [H1391, 1-(1-(2,6-difluorophenyl)ethyl)-3-(4-((isoindolin-5-ylmethyl)sulfonyl)phenyl)urea] were 10.5 nM, 11.8 µL/min/mg, 7.2 nM, over 30000 nM and 14.8 µL/min/mg.
With `CC(NC(=O)Nc1ccc(S(=O)(=O)Cc2ccc3c(c2)CN(C)C3)cc1Cl)c1ccccc1` (stereo not shown) [H1456, 1-(2-chloro-4-(((2-methylisoindolin-5-yl)methyl)sulfonyl)phenyl)-3-(1-phenylethyl)urea], the IC50 in data set [1] (setting [6]) stood at 109 nM. In addition, in data set [2], the “Metabolic Stability Study M = mouse” value stood at 137.8 µL/min/mg. Further, the EC50 in data set [3] (setting [7]) was 6.2 nM; in data set [4] (setting [8]) it was over 30000 nM. In addition, in data set [5], the “Metabolic Stability Study H = human” value was 160.6 µL/min/mg.
For `COc1cc(S(=O)(=O)Cc2ccc3c(c2)CCNC3)ccc1NC(=O)N[C@@H](C)c1cccc(Cl)c1Cl` [H1482, (S)-1-(1-(2,3-dichlorophenyl)ethyl)-3-(2-methoxy-4-(((1,2,3,4-tetrahydroisoquinolin-6-yl)methyl)sulfonyl)phenyl)urea], the IC50 in data set [1] (setting [6]) came out at 0.282 nM. Also, in data set [2], the “Metabolic Stability Study M = mouse” value came out at 12.5 µL/min/mg. In addition, the figures for the EC50 in data set [3] (setting [7]) and in data set [4] (setting [8]) were 0.4 nM and over 30000 nM, respectively. Moreover, the “Metabolic Stability Study H = human” value in data set [5] is under 10 µL/min/mg.
With `CC(NC(=O)Nc1ccc(S(=O)(=O)Nc2ccc3c(c2)CCN(C)C3)cc1)c1ccccc1Cl` (stereo not shown) [H1334, 4-(3-(1-(2-chlorophenyl)ethyl)ureido)-N-(2-methyl-1,2,3,4-tetrahydroisoquinolin-6-yl)benzenesulfonamide], in data set [1] (setting [9]), the IC50 turned out to be 9.18 nM. Besides, the “Metabolic Stability Study M = mouse” value in data set [2] was 97.9 µL/min/mg. The EC50 in data set [3] (setting [10]) is 8.2 nM; in data set [4] (setting [11]), over 30000 nM. Also, in data set [5], the “Metabolic Stability Study H = human” value is 109.8 µL/min/mg.
Turning to `CC(NC(=O)Nc1ccc(S(=O)(=O)Cc2ccc3c(c2)CNC3)cc1F)c1ccccc1F.Cl` (stereo not shown) [H1389, 1-(2-fluoro-4-((isoindolin-5-ylmethyl)sulfonyl)phenyl)-3-(1-(2-fluorophenyl)ethyl)urea], in data set [1] (setting [9]), the IC50 is 27.6 nM. In addition, in data set [2], the “Metabolic Stability Study M = mouse” value stood at 21.2 µL/min/mg. Moreover, the EC50 is 15.1 nM in data set [3] (setting [10]) and over 30000 nM in data set [4] (setting [11]). Besides, the “Metabolic Stability Study H = human” value in data set [5] was 21.3 µL/min/mg.
Consider `COc1cc(S(=O)(=O)Cc2ccc3c(c2)CNC3)ccc1NC(=O)N(C)C(C)c1ccccc1` (stereo not shown) [H1398, 3-(4-((isoindolin-5-ylmethyl)sulfonyl)-2-methoxyphenyl)-1-methyl-1-(1-phenylethyl)urea], for which, in data set [1] (setting [9]), the IC50 came to 629 nM. Further, the “Metabolic Stability Study M = mouse” value in data set [2] was determined as 80.5 µL/min/mg. Moreover, the EC50 is 62.6 nM in data set [3] (setting [10]) and over 30000 nM in data set [4] (setting [11]). In addition, the “Metabolic Stability Study H = human” value in data set [5] is 52.9 µL/min/mg.
Take `C[C@@H](NC(=O)Nc1ccc(S(=O)(=O)Cc2ccc3c(c2)CN(C)C3)cc1)c1ccccc1` [H1356, (R)-1-(4-(((2-methylisoindolin-5-yl)methyl)sulfonyl)phenyl)-3-(1-phenylethyl)urea]: the “Metabolic Stability Study M = mouse” value in data set [2] amounted to 126 µL/min/mg. Also, in data set [4] (setting [11]), the EC50 was over 30000 nM. Further, the “Metabolic Stability Study H = human” value in data set [5] came out at 382.5 µL/min/mg.
Regarding `C[C@@H](NC(=O)Nc1ccc(S(=O)(=O)Cc2ccc3c(c2)CN(C)C3)cc1)c1ccccc1` [H1300, (R)-1-(4-(((2-methylisoindolin-5-yl)methyl)sulfonyl)phenyl)-3-(1-phenylethyl)urea], the “Metabolic Stability Study M = mouse” value in data set [2] was determined as 42.1 µL/min/mg. Besides, the EC50 in data set [4] (setting [11]) is over 30000 nM. The “Metabolic Stability Study H = human” value in data set [5] is 124.3 µL/min/mg.
Consider `COc1cc(S(=O)(=O)Cc2ccc3c(c2)CCNC3)ccc1NC(=O)N[C@H](C)c1cccc(Cl)c1Cl` [H1481, (R)-1-(1-(2,3-dichlorophenyl)ethyl)-3-(2-methoxy-4-(((1,2,3,4-tetrahydroisoquinolin-6-yl)methyl)sulfonyl)phenyl)urea], for which the “Metabolic Stability Study M = mouse” value in data set [2] was found to be 13.2 µL/min/mg. Besides, the EC50 in data set [3] (setting [7]) is 0.2 nM; in data set [4] (setting [8]), over 30000 nM. Also, the “Metabolic Stability Study H = human” value in data set [5] is under 10 µL/min/mg.
Turning to `CC(NC(=O)Nc1c(F)cc(S(=O)(=O)Cc2ccc3c(c2)CNC3)cc1F)c1ccccc1.O=C(O)C(F)(F)F` (stereo not shown) [H1404, 1-(2,6-difluoro-4-((isoindolin-5-ylmethyl)sulfonyl)phenyl)-3-(1-phenylethyl)urea], the IC50 in data set [1] (setting [9]) came to 1620 nM. Besides, the “Metabolic Stability Study M = mouse” value in data set [2] is 19 µL/min/mg. The EC50 in data set [4] (setting [11]) is over 30000 nM. For the same compound, the “Metabolic Stability Study H = human” value in data set [5] came out at 10 µL/min/mg.
Regarding `COc1ccc(C(C)NC(=O)Nc2ccc(S(=O)(=O)Cc3ccc4c(c3)CNC4)cc2)c2ccccc12` (stereo not shown) [H1154, 1-(4-((isoindolin-5-ylmethyl)sulfonyl)phenyl)-3-(1-(4-methoxynaphthalen-1-yl)ethyl)urea], in data set [1] (setting [12]), the IC50 was 126 nM. Further, the “Metabolic Stability Study M = mouse” value in data set [2] stood at 22.9 µL/min/mg. Also, in data set [3] (setting [13]), the EC50 was 29.8 nM and 26.8 nM. The “Metabolic Stability Study H = human” value in data set [5] stood at 19.2 µL/min/mg.
With `CN1Cc2ccc(CS(=O)(=O)c3ccc(NC(=O)NCc4ccccc4)cc3)cc2C1` [H1193, 1-benzyl-3-(4-(((2-methylisoindolin-5-yl)methyl)sulfonyl)phenyl)urea], the IC50 in data set [1] (setting [12]) was 324 nM. In addition, the “Metabolic Stability Study M = mouse” value in data set [2] amounted to 43.7 µL/min/mg. In addition, the EC50 in data set [3] (setting [13]) amounted to 64 nM. In addition, the “Metabolic Stability Study H = human” value in data set [5] worked out at 49.8 µL/min/mg.
Consider `CC(NC(=O)Nc1ccc(S(=O)(=O)Cc2ccc3c(c2)CN(Cc2ccccc2)C3)cc1)c1ccccc1` (stereo not shown) [H1219, 1-(4-(((2-benzylisoindolin-5-yl)methyl)sulfonyl)phenyl)-3-(1-phenylethyl)urea], for which, in data set [1] (setting [12]), the IC50 was found to be 7.77 nM. Besides, the “Metabolic Stability Study M = mouse” value in data set [2] is listed as “H > 500 M > 500 R = not reported D = not reported μL/min/mg”. Besides, the EC50 in data set [3] (setting [13]) stood at 163 nM. For the same compound, the “Metabolic Stability Study H = human” value in data set [5] was “H > 500 M > 500 R = not reported D = not reported μL/min/mg”.
On to `C[C@H](NC(=O)Nc1ccc(S(=O)(=O)Nc2ccc(N)cn2)cc1)c1cccc(Cl)c1Cl.Cl` [H1127, (S)-N-(5-aminopyridin-2-yl)-4-(3-(1-(2,3-dichlorophenyl)ethyl)ureido) benzenesulfonamide], for which, in data set [1] (setting [12]), the IC50 was 861 nM. In addition, in data set [2], the “Metabolic Stability Study M = mouse” value stood at 59.5 µL/min/mg. Moreover, the EC50 in data set [3] (setting [13]) is 94.7 nM. In addition, the “Metabolic Stability Study H = human” value in data set [5] was determined as 41 µL/min/mg.

The values above are taken from US10501479B2, “Benzenesulfonyl-asymmetric ureas and medical uses thereof” (HELSINN HEALTHCARE SA, priority 2016, dated 2019).
